Measurements taken from patent US7378407B2, “Geldanamycin compounds and method of use” (Kosan Biosciences Incorporated, priority 2004, dated 2008).
Like-named read-outs stand apart in the source and are kept apart here.

How the values were obtained:
SKBr3 cells = test: cells; assay type: cell-based, human; details: read-out: Cytotoxicity, SKBr3 Cells (IC50 (nM))
Description: The human breast cancer cell line SKBr3 was obtained from the American Type Culture Collection (Manassas, Va.) and maintained in McCoy's 5A modified medium (Invitrogen; Carlsbad, Calif.) supplemented with 10% fetal bovine serum (FBS) (Hyclone; Logan, Utah) and 2 mM glutamine, in humidified air with 5% CO2 at 37° C.
Cells were seeded in duplicate in 96-well black tissue culture microtiter plates at ˜4000 cells per well and allowed to attach overnight. Serial 10-fold dilutions of compounds were added, and the cells were incubated for 72 h. Cell viability was determined using the CellTiter-Glo™ Luminescent Cell Viability Assay (Promega; Madison, Wis.). IC50 is defined as the concentration of drug required for inhibiting cell growth by 50%.

human Hsp90α = human Hsp90α (Homo sapiens, UniProt P07900); test: Hsp90α binding, SPA competition with [allyl-3H]-17-AAG
Source text: Truncated (Carreras et al. Anal. Biochem. 2003, 317, 40-46) and full-length forms of human Hsp90 were expressed in E. coli with N-terminal polyHis and biotinylation recognition sequence (BRS) tags to facilitate purification and SPA assay, respectively. […] The 3′ end of the gene contained a BamHI site, adding a single proline residue to the C-terminus. The tagged full-length protein was cloned into pET21d as described for the tagged N-domain of Hsp90 (Carreras et al., cited supra), and co-expressed with biotin ligase encoded by pBIRAcm (Avidity, Denver, Colo.) in Escherichia coli BL21DE(3).
Biotinylated Hsp90α was added to a 1 mg/mL suspension of streptavidin coated YiSi beads (Pharmacia RPNQ0012; 219 pmol streptavidin/mg) in Binding Buffer (10 mM Tris-HCl, 5 mM MgCl2, pH 7.0) to obtain a final concentration of 225 nM. […] Reaction mixtures were incubated for 2˜4 h at room temperature in 96-well assay plates, then signals for each reaction were measured using a Wallac Microbeta scintillation counter. The resulting data was fit to a competitive binding equation (Segal, I. H., Enzyme Kinetics: Behavior and analysis of rapid equilibrium and steady-state enzyme systems; Wiley Interscience: New York, 1975).

[1] = SK-BR-3, human breast cancer cell line SKBr3, 72 h incubation, concentration inhibiting cell growth by 50%
[2] = biotinylated Hsp90α on streptavidin beads, competition with [allyl-3H]-17-AAG, 2-4 h room temperature, pH 7.0, read-out: Hsp90α Binding (Kd (μM))

| Structure (SMILES) | IC50 (SKBr3 cells; Homo sapiens, SK-BR-3, 72 h) [nM] | IC50 (SKBr3 cells; [1]) [nM] | Kd (human Hsp90α) [µM] | Kd (human Hsp90α; [2]) [µM] |
| --- | --- | --- | --- | --- |
| CO[C@H]1/C=C\C=C(/C)C(=O)NC2=CC(=O)C(NCCCCP(=O)(O)O)=C(C[C@@H](C)C[C@H](OC)[C@H](O)[C@@H](C)/C=C(\C)[C@@H]1OC(N)=O)C2=O [Compound 10] | ~2000 | – | – | – |
| C=CCNC1=C2C[C@@H](C)C[C@H](OC)[C@H](O)[C@@H](C)/C=C(\C)[C@H](OC(N)=O)[C@@H](OC)/C=C\C=C(/C)C(=O)NC(=CC1=O)C2=O [Compound 17-AAG, 17-allylamino-17-demethoxy-geldanamycin, reference compound] | 38 | – | – | – |
| CO[C@H]1/C=C\C=C(/C)C(=O)NC2=CC(=O)C(NCCOCCOCCNC(=O)CCCC[C@@H]3SC[C@@H]4NC(=O)N[C@@H]43)=C(C[C@@H](C)C[C@H](OC)[C@H](O)[C@@H](C)/C=C(\C)[C@@H]1OC(N)=O)C2=O [Compound 5] | – | > 1000 | – | – |
| CO[C@H]1/C=C\C=C(/C)C(=O)NC2=CC(=O)C(NCCCP(=O)(O)O)=C(C[C@@H](C)C[C@H](OC)[C@H](O)[C@@H](C)/C=C(\C)[C@@H]1OC(N)=O)C2=O [Compound 9] | ~1000 | – | 0.9 | – |
| CO[C@H]1/C=C\C=C(/C)C(=O)NC2=CC(=O)C(NCC[N+](C)(C)[O-])=C(C[C@@H](C)C[C@H](OC)[C@H](O)[C@@H](C)/C=C(\C)[C@@H]1OC(N)=O)C2=O [Compound 4, [2-(17-demethoxygeldanamycin-17-ylamino)-ethyl]dimethylamine N-oxide] | – | > 1000 | – | 0.6 |
| CO[C@H]1/C=C\C=C(/C)C(=O)NC2=CC(=O)C(NCCC(=O)O)=C(C[C@@H](C)C[C@H](OC)[C@H](O)[C@@H](C)/C=C(\C)[C@@H]1OC(N)=O)C2=O [Compound 7] | – | > 5000 | – | 1.1 |
| CO[C@H]1/C=C\C=C(/C)C(=O)NC2=CC(=O)C(N[C@@H]3C(O)O[C@@H](CO)[C@H](O)[C@H]3O)=C(C[C@@H](C)C[C@H](OC)[C@H](O)[C@@H](C)/C=C(\C)[C@@H]1OC(N)=O)C2=O (stereo partly shown) [Compound 1, 17-(glucos-2-amino)-17-demethoxygeldanamycin] | – | 1200 | – | 0.5 |
| CO[C@H]1/C=C\C=C(/C)C(=O)NC2=CC(=O)C(NCCOCCOCCOCCNC(=O)CCCC[C@@H]3SC[C@@H]4NC(=O)N[C@@H]43)=C(C[C@@H](C)C[C@H](OC)[C@H](O)[C@@H](C)/C=C(\C)[C@@H]1OC(N)=O)C2=O [Compound 6] | – | > 1000 | – | 1.1 |
| CO[C@H]1/C=C\C=C(/C)C(=O)NC2=CC(=O)C(NC[C@@H]3OC(O)[C@@H](O)[C@H](O)[C@H]3O)=C(C[C@@H](C)C[C@H](OC)[C@H](O)[C@@H](C)/C=C(\C)[C@@H]1OC(N)=O)C2=O (stereo partly shown) [Compound 2, 17-(glucos-6-amino)-17-demethoxygeldanamycin] | – | 5300 | – | 0.2 |
| CO[C@H]1/C=C\C=C(/C)C(=O)NC2=CC(=O)C(NCCP(=O)(O)O)=C(C[C@@H](C)C[C@H](OC)[C@H](O)[C@@H](C)/C=C(\C)[C@@H]1OC(N)=O)C2=O [Compound 8] | ~3000 | – | 0.6 | – |
| CO[C@H]1/C=C\C=C(/C)C(=O)NC2=CC(=O)C(NCC[N+](C)(C)C)=C(C[C@@H](C)C[C@H](OC)[C@H](O)[C@@H](C)/C=C(\C)[C@@H]1OC(N)=O)C2=O [Compound 3, {[2-(17-demethoxygeldanamycin-17-yl)amino]ethyl}trimethylammonium chloride] | – | > 1000 | – | 0.3 |
